Test results reported in ChEMBL document CHEMBL3885881, “DrugMatrix”.

Species: Rattus norvegicus
Assay: DrugMatrix - Regimen: Daily Repeat
Type: toxicity, organism-based, Sprague-Dawley
Parameters: regimen Daily Repeat, gender Male, age 6-8 weeks
Conditions: in vivo, po, route oral GAVAGE, vehicle 100 % WATER; for ABSOLUTE BASOPHIL / ABSOLUTE EOSINOPHIL / ABSOLUTE LYMPHOCYTE / ABSOLUTE MONOCYTE / ABSOLUTE SEGMENTED NEUTROPHIL / BASOPHIL / EOSINOPHIL / ERYTHROCYTE COUNT / HEMATOCRIT / HEMOGLOBIN / LEUKOCYTE COUNT / LYMPHOCYTE / MEAN CORPUSCULAR HEMOGLOBIN / MEAN CORPUSCULAR HEMOGLOBIN CONCENTRATION / MEAN CORPUSCULAR VOLUME / MONOCYTE / NEUTROPHIL / NUCLEATED RED BLOOD CELLS / PLATELET COUNT: tissue Blood; for ALANINE AMINOTRANSFERASE / ALBUMIN / ALKALINE PHOSPHATASE / ASPARTATE AMINOTRANSFERASE / BLOOD UREA NITROGEN / CARBON DIOXIDE / CHLORIDE / CHOLESTEROL / CREATINE PHOSPHOKINASE / CREATININE / GLUCOSE / LACTATE DEHYDROGENASE / LIPASE / PHOSPHORUS / POTASSIUM / SODIUM / TOTAL BILIRUBIN / TOTAL PROTEIN / URIC ACID: tissue Plasma
[1] = 200 mg/kg, 120 h, dose level Low, time 5 day
[2] = 2625 mg/kg, 72 h, dose level High, time 3 day
[3] = 2625 mg/kg, 120 h, dose level High, time 5 day

O=C(O)c1cccnc1 [NIACIN]
ABSOLUTE BASOPHIL [1]: 0 CELLS/uL
ABSOLUTE EOSINOPHIL [1]: 0 CELLS/uL
ABSOLUTE LYMPHOCYTE [1]: 13805.67 CELLS/uL
ABSOLUTE MONOCYTE [1]: 0 CELLS/uL
ABSOLUTE SEGMENTED NEUTROPHIL [1]: 1394.33 CELLS/uL
BASOPHIL [1]: 0%
EOSINOPHIL [1]: 0%
ERYTHROCYTE COUNT [1]: 5.57 x10E6/uL
HEMATOCRIT [1]: 34.77%
HEMOGLOBIN [1]: 13.77 G/DL
LEUKOCYTE COUNT [1]: 15.2 x10E3/uL
LYMPHOCYTE [1]: 91%
MEAN CORPUSCULAR HEMOGLOBIN [1]: 24.73 pg
MEAN CORPUSCULAR HEMOGLOBIN CONCENTRATION [1]: 39.57 G/DL
MEAN CORPUSCULAR VOLUME [1]: 62.53 fL
MONOCYTE [1]: 0%
NEUTROPHIL [1]: 9%
NUCLEATED RED BLOOD CELLS [1]: 0.33 /100WBC
PLATELET COUNT [1]: 1180.67 x10E3/uL
ALANINE AMINOTRANSFERASE [1]: 55.33 u/L
ALBUMIN [1]: 4.03 G/DL
ALKALINE PHOSPHATASE [1]: 296.33 u/L
ASPARTATE AMINOTRANSFERASE [1]: 77.67 u/L
BLOOD UREA NITROGEN [1]: 12.67 mg/dL
CARBON DIOXIDE [1]: 31.33 mmol/L
CHLORIDE [1]: 101.67 MEQ/L
CHOLESTEROL [1]: 76.33 mg/dL
CREATINE PHOSPHOKINASE [1]: 209 u/L
CREATININE [1]: 0.23 mg/dL
GLUCOSE [1]: 140 mg/dL
LACTATE DEHYDROGENASE [1]: 212 u/L
LIPASE [1]: 13 u/L
PHOSPHORUS [1]: 12.63 mg/dL
POTASSIUM [1]: 6.55 MEQ/L
SODIUM [1]: 145.13 MEQ/L
TOTAL BILIRUBIN [1]: 0.13 mg/dL
TOTAL PROTEIN [1]: 5.93 G/DL
URIC ACID [1]: 1.43 mg/dL
ABSOLUTE BASOPHIL [2]: 0 CELLS/uL
ABSOLUTE EOSINOPHIL [2]: 135 CELLS/uL
ABSOLUTE LYMPHOCYTE [2]: 10224 CELLS/uL
ABSOLUTE MONOCYTE [2]: 258 CELLS/uL
ABSOLUTE SEGMENTED NEUTROPHIL [2]: 1683 CELLS/uL
BASOPHIL [2]: 0%
EOSINOPHIL [2]: 1%
ERYTHROCYTE COUNT [2]: 5.89 x10E6/uL
HEMATOCRIT [2]: 36.17%
HEMOGLOBIN [2]: 14.27 G/DL
LEUKOCYTE COUNT [2]: 12.3 x10E3/uL
LYMPHOCYTE [2]: 84%
MEAN CORPUSCULAR HEMOGLOBIN [2]: 24.23 pg
MEAN CORPUSCULAR HEMOGLOBIN CONCENTRATION [2]: 39.43 G/DL
MEAN CORPUSCULAR VOLUME [2]: 61.33 fL
MONOCYTE [2]: 2%
NEUTROPHIL [2]: 13%
NUCLEATED RED BLOOD CELLS [2]: 0.33 /100WBC
PLATELET COUNT [2]: 1326 x10E3/uL
ALANINE AMINOTRANSFERASE [2]: 45 u/L
ALBUMIN [2]: 3.73 G/DL
ALKALINE PHOSPHATASE [2]: 269.33 u/L
ASPARTATE AMINOTRANSFERASE [2]: 105 u/L
BLOOD UREA NITROGEN [2]: 15 mg/dL
CARBON DIOXIDE [2]: 29 mmol/L
CHLORIDE [2]: 100.33 MEQ/L
CHOLESTEROL [2]: 68.67 mg/dL
CREATINE PHOSPHOKINASE [2]: 532.33 u/L
CREATININE [2]: 0.18 mg/dL
GLUCOSE [2]: 145.67 mg/dL
LACTATE DEHYDROGENASE [2]: 900 u/L
LIPASE [2]: 11.33 u/L
PHOSPHORUS [2]: 12.33 mg/dL
POTASSIUM [2]: 6.2 MEQ/L
SODIUM [2]: 144.73 MEQ/L
TOTAL BILIRUBIN [2]: 0.13 mg/dL
TOTAL PROTEIN [2]: 5.57 G/DL
URIC ACID [2]: 1.47 mg/dL
ABSOLUTE BASOPHIL [3]: 0 CELLS/uL
ABSOLUTE EOSINOPHIL [3]: 0 CELLS/uL
ABSOLUTE LYMPHOCYTE [3]: 15227.67 CELLS/uL
ABSOLUTE MONOCYTE [3]: 166 CELLS/uL
ABSOLUTE SEGMENTED NEUTROPHIL [3]: 1206.33 CELLS/uL
BASOPHIL [3]: 0%
EOSINOPHIL [3]: 0%
ERYTHROCYTE COUNT [3]: 5.68 x10E6/uL
HEMATOCRIT [3]: 36.37%
HEMOGLOBIN [3]: 14.23 G/DL
LEUKOCYTE COUNT [3]: 16.6 x10E3/uL
LYMPHOCYTE [3]: 91.67%
MEAN CORPUSCULAR HEMOGLOBIN [3]: 25.07 pg
MEAN CORPUSCULAR HEMOGLOBIN CONCENTRATION [3]: 39.17 G/DL
MEAN CORPUSCULAR VOLUME [3]: 64 fL
MONOCYTE [3]: 1%
NEUTROPHIL [3]: 7.33%
NUCLEATED RED BLOOD CELLS [3]: 0.33 /100WBC
PLATELET COUNT [3]: 1260.67 x10E3/uL
ALANINE AMINOTRANSFERASE [3]: 55 u/L
ALBUMIN [3]: 4.07 G/DL
ALKALINE PHOSPHATASE [3]: 397.33 u/L
ASPARTATE AMINOTRANSFERASE [3]: 96 u/L
BLOOD UREA NITROGEN [3]: 16.67 mg/dL
CARBON DIOXIDE [3]: 32.33 mmol/L
CHLORIDE [3]: 100.67 MEQ/L
CHOLESTEROL [3]: 55.33 mg/dL
CREATINE PHOSPHOKINASE [3]: 323.67 u/L
CREATININE [3]: 0.2 mg/dL
GLUCOSE [3]: 151 mg/dL
LACTATE DEHYDROGENASE [3]: 666 u/L
LIPASE [3]: 10.33 u/L
PHOSPHORUS [3]: 11.7 mg/dL
POTASSIUM [3]: 6.01 MEQ/L
SODIUM [3]: 145.9 MEQ/L
TOTAL BILIRUBIN [3]: 0.27 mg/dL
TOTAL PROTEIN [3]: 5.7 G/DL
URIC ACID [3]: 1.43 mg/dL
